From patent US20240262793A1, “QUINAZOLINE COMPOUND, AND PREPARATION METHOD THEREFOR AND APPLICATION THEREOF” (SHANGHAI PHARMACEUTICALS HOLDING CO., LTD., priority 2021, published 2024) come the findings set out here.

By IC50 is commonly meant the concentration that gives 50% inhibition.

Holding throughout (format): cell-based
What all share (conditions): Homo sapiens, THP-1, Table 7, PMA 50 ng/mL, LPS 100 ng/mL

The subject of one assay is IL-1β. Nature of the assay: Inhibition of IL-1β in PMA-differentiated, LPS-stimulated THP-1 cells (ELISA of cell lysate). How it is done: (§1) (1) Cell culture and inoculation: A stock solution of PMA at 1 mg/mL was diluted with serum-free RP1640 medium to prepare a 100 ng/mL PMA solution. Normal cultured THP-1 cells were centrifuged, resuspended in a complete medium (RP1640 medium containing 10% FBS), and counted. The cell density was adjusted to 2×10^6 cells/mL. An equal volume of 100 ng/mL PMA solution was then added, resulting in a cell density of 1×10^6 cells/mL and a final PMA concentration of 50 ng/mL. 100 μL of the cell suspension was seeded into each well of a 96-well cell culture plate with 1×10^5 cells per well. The 96-well cell culture plate was then incubated at 37° C. in a 5% CO2 atmosphere for 24 hours.
(§2) (2) Drug treatment of cells: On the second day, LPS was added to the complete medium to adjust the final concentration to 100 ng/mL, and the compound was prepared using this LPS-containing medium. The compound was added to the appropriate cell wells according to the prepared concentration gradient. The positive control group (LPS+) was a culture medium solution containing a final concentration of 100 ng/mL LPS and 0.1% DMSO without drugs, while the negative control group (LPS-) was a culture medium solution containing 0.1% DMSO without LPS. The volume in each well was 100 μL.
(§3) (3) Test sample collection: The mixture was centrifuged at 1000 rpm for 5 minutes and the cell supernatant and cell precipitate were collected separately. The cell supernatant was used to detect TNF-α and IL-6, and the cell precipitate was collected for IL-1β detection. After collecting the cell supernatant, the remaining liquid in the wells was discarded and 100 μL of cell lysis solution (20 mM Tris 8.0; 2 mM EDTA; 0.5% Triton X-100) was added to each well for complete lysis.
(§4) (4) Sample detection: The enzyme-linked immunosorbent assay (ELISA) was used to detect the content of each cytokine. The specific steps were performed according to the instructions provided in the corresponding kit manuals. The catalog numbers of kits are as follows: • Human TNF-alpha Quantikine ELISA Kit, Catalog # STA00D • Human IL-1 beta/IL-1F2 Quantikine ELISA Kit, Catalog # SLB50 • Human IL-6 Quantikine ELISA Kit, Catalog # S6050.
(§5) (5) Data analysis: The in vitro inhibitory activity of the compounds was calculated using the following formula: […]

In another assay the test system is IL-6. As to the kind of experiment: Inhibition of IL-6 in PMA-differentiated, LPS-stimulated THP-1 cells (ELISA of cell supernatant). How it is done: as §1, §2, §3, §4, §5
In general terms: In an ELISA, binding on a coated surface is turned into a signal by an enzyme label.

Another assay concerns TNF-α. Nature of the assay: Inhibition of TNF-α in PMA-differentiated, LPS-stimulated THP-1 cells (ELISA of cell supernatant). The method, then: as §1, §2, §3, §4, §5

Regarding `CC(CCCN(CCO)Cc1ccccn1)Nc1ccnc2cc(Cl)ccc12` (stereo not drawn) [Example 19, 2-((4-((7-Chloroquinolin-4-yl)amino)pentyl)(pyridin-2-ylmethyl)amino)ethan-1-ol], the IC50 with IL-1β is 2.2 µM; in the assay on IL-6, 0.81 µM; in the assay on TNF-α, 14.3 µM.

With `CC(CCCN(CCO)Cc1cccc(F)c1)Nc1ncnc2cc(Cl)ccc12` (stereo not drawn) [Example 20, 2-((4-((7-Chloroquinazolin-4-yl)amino)pentyl)(3-fluorobenzyl)amino)ethan-1-ol], the values for the IC50 with IL-1β, in the assay with IL-6 and in the assay with TNF-α were 5.9 µM, 0.47 µM and 6.4 µM, respectively.

Turning to `CC(CCCN(CCO)Cc1ccc(F)cc1F)Nc1ncnc2cc(Cl)ccc12` (stereo not drawn) [Example 21, 2-((4-((7-Chloroquinazolin-4-yl)amino)pentyl)(2,4-difluorobenzyl)amino)ethan-1-ol], the values for the IC50 in the assay with IL-1β, in the assay on IL-6 and with TNF-α were 0.65 µM, 0.19 µM and 1.41 µM, respectively.

Consider `COC(=O)c1ccc(CN(CCO)CCCC(C)Nc2ccnc3cc(Cl)ccc23)c(OC)c1` (stereo not drawn) [Example 22, Methyl 4-(((4-((7-chloroquinolin-4-yl)amino)pentyl)(2-hydroxyethyl)amino)methyl)-3-methoxybenzoate], for which the IC50 stood at 9.79 µM with IL-1β, 2.06 µM with IL-6 and 6.91 µM in the assay with TNF-α.

Turning to `CC(CCCN(CCO)Cc1ccc(C#N)cc1)Nc1ccnc2cc(Cl)ccc12` (stereo not drawn) [Example 23, 4-(((4-((7-Chloroquinolin-4-yl)amino)pentyl)(2-hydroxyethyl)amino)methyl)benzonitrile], the results for the IC50 in the assay on IL-1β, in the assay on IL-6 and in the assay on TNF-α were 1.36 µM, 0.38 µM and 2.79 µM, respectively.

Consider `CC(CCCN(CCO)Cc1cccc(C(F)(F)F)c1)Nc1ccnc2cc(Cl)ccc12` (stereo not drawn) [Example 24, 2-((4-((7-Chloroquinolin-4-yl)amino)pentyl)(3-(trifluoromethyl)benzyl)amino)ethan-1-ol], for which the IC50 in the assay with IL-1β turned out to be 4.46 µM; in the assay with IL-6, 1.2 µM; with TNF-α it was 4.77 µM.

As to `CC(CCCN(CCO)Cc1ccc2ccccc2c1)Nc1ccnc2cc(Cl)ccc12` (stereo not drawn) [Example 25, 2-((4-((7-Chloroquinolin-4-yl)amino)pentyl)(naphthalen-2-ylmethyl)amino)ethan-1-ol], the IC50 in the assay on IL-1β came out at 4.36 µM; in the assay with IL-6 it was 1.32 µM; with TNF-α, 5.07 µM.

With `CC(CCCN(CCO)Cc1ccc(S(C)(=O)=O)cc1)Nc1ccnc2cc(Cl)ccc12` (stereo not drawn) [Example 26, 2-((4-((7-Chloroquinolin-4-yl)amino)pentyl)(4-(methylsulfonyl)benzyl)amino)ethan-1-ol], the IC50 amounted to 14 µM with IL-1β, 0.33 µM with IL-6 and 3.82 µM in the assay with TNF-α.

Take `COC(=O)c1ccc(CN(CCO)CCCC(C)Nc2ccnc3cc(Cl)ccc23)cc1` (stereo not drawn) [Example 27, Methyl 4-(((4-((7-chloroquinolin-4-yl)amino)pentyl)(2-hydroxyethyl)amino)methyl)benzoate]: the figures for the IC50 with IL-1β, in the assay with IL-6 and in the assay with TNF-α were 5.78 µM, 0.53 µM and 2.17 µM, respectively.

Consider `CC(CCCN(CCO)Cc1ccc(-n2cccn2)cc1)Nc1ccnc2cc(Cl)ccc12` (stereo not drawn) [Example 28, 2-((4-(1H-Pyrazol-1-yl)benzyl)(4-((7-chloroquinolin-4-yl)amino)pentyl)amino)ethan-1-ol], for which the IC50 with IL-1β came to 10.9 µM; with IL-6, 0.68 µM; in the assay with TNF-α it was 11.2 µM.

Consider `CC(CCCN(CCO)Cc1c(F)cccc1Cl)Nc1ccnc2cc(Cl)ccc12` (stereo not drawn) [Example 29, 2-((2-Fluoro-6-chlorobenzyl)(4-((7-chloroquinolin-4-yl)amino)pentyl)amino)ethan-1-ol], for which the results for the IC50 in the assay with IL-1β, with IL-6 and in the assay on TNF-α were 4.11 µM, 0.36 µM and 2.63 µM, respectively.

As to `CC(CCCN(CCO)Cc1ccc(C#N)cc1F)Nc1ccnc2cc(Cl)ccc12` (stereo not drawn) [Example 30, 4-(((4-((7-Chloroquinolin-4-yl)amino)pentyl)(2-hydroxyethyl)amino)methyl)-3-fluorobenzonitrile], the IC50 in the assay on IL-1β was found to be 1.34 µM; in the assay on IL-6, 0.12 µM; with TNF-α, 0.97 µM.
